Experimental data from US20250270507A1, “METHODS FOR PRODUCING CARTILAGE AND BONES” (Murdoch Children's Research Institute, priority 2021, published 2025).

Columns and labels:
Type in all cases: cell-based, human
[1] = system: MCRIi018-B hypertrophic organoids; test: Hypertrophic chondrocyte to osteoblast transdifferentiation in vitro
Method: Hypertrophic chondrocytes can transdifferentiate into osteoblasts and osteocytes in vivo (Yang et al., 2014; Zhou et al., 2014). To recapitulate this later stage of endochondral bone formation in vitro, hypertrophic chondrocyte pellets in orbital culture were rinsed in PBS then cultured in DMEM, high glucose, GlutaMAX Supplement, pyruvate (ThermoFisher), 20% FBS (ThermoFisher), 10 mM β-glycerophosphate, 50 μg/ml ascorbic acid 2-phosphate, 50 μg/ml sodium ascorbate, 100 nM dexamethasone (osteogenic differentiation media) for up to three weeks. […] Media was replaced every 2-3 days. […]

MCRIi001-A-2 organoids = test: Osteogenic differentiation conditions in a second iPSC line; settings: osteogenic conditions with a CHIR99021 pulse v osteogenic medium alone
Method: Hypertrophic chondrocytes can transdifferentiate into osteoblasts and osteocytes in vivo (Yang et al., 2014; Zhou et al., 2014). To recapitulate this later stage of endochondral bone formation in vitro, hypertrophic chondrocyte pellets in orbital culture were rinsed in PBS then cultured in DMEM, high glucose, GlutaMAX Supplement, pyruvate (ThermoFisher), 20% FBS (ThermoFisher), 10 mM β-glycerophosphate, 50 μg/ml ascorbic acid 2-phosphate, 50 μg/ml sodium ascorbate, 100 nM dexamethasone (osteogenic differentiation media) for up to three weeks. […] Media was replaced every 2-3 days.
Cultured and in vivo grafted pellet organoids were fixed overnight at 4° C. in Confix (Australian Biostain) neutral-buffered formalin, then […] washed in 70% ethanol, and paraffin-embedded. After fixing, some in vivo grafted pellets were washed in water for 10 minutes then decalcified in 14% EDTA, pH 7.4 at 4° C. for 5 days before embedding. Serial 5 μm sections cut from the pellet centers were mounted on Superfrost Plus slides (Menzel-Gläser) and heated at 55° C. overnight. Sections were treated with xylene to remove the paraffin wax and an ethanol series comprising 100%, 90%, 70%, 50% ethanol then water to rehydrate the sections. Sections were stained with toluidine blue to detect a cartilage proteoglycan matrix or safranin O/fast green for cartilage and bone following standard protocols. […]

[2] = system: iPSC-derived sclerotome pellets (MCRIi018-B); test: Sclerotome to chondrocyte differentiation in pellet culture (FGF2 v BMP4); settings: for collagen II extracellular matrix (immunostaining) / collagen X extracellular staining: day 48; for collagen X extracellular staining: static pellets
Method: Sclerotome to chondrocyte differentiation was in APEL2 medium containing 5% Protein Free Hybridoma Medium (PFHM II; Thermo Fisher) and 20 ng/ml FGF2. In some experiments BMP4 (R & D Systems) was included at 20 ng/ml. Pellets were routinely transferred to 6 cm non-adherent dishes (Greiner) at the end of either day 6 or day 20; 15-20 pellets per dish in 5 ml of medium with orbital rotation at 60 rpm. The medium was changed every 2-3 days. From day 20 (after 2 weeks of FGF2 treatment), differentiation/maturation continued in APEL2/5% PFHM with medium replaced every 2-3 days for the duration of the chondrogenic differentiation experiments as indicated. In some experiments pellets were treated with FGF2 for 4 weeks post-sclerotome.
(§1) Cultured and in vivo grafted pellet organoids were fixed overnight at 4° C. in Confix (Australian Biostain) neutral-buffered formalin, then […] washed in 70% ethanol, and paraffin-embedded. After fixing, some in vivo grafted pellets were washed in water for 10 minutes then decalcified in 14% EDTA, pH 7.4 at 4° C. for 5 days before embedding. Serial 5 μm sections cut from the pellet centers were mounted on Superfrost Plus slides (Menzel-Gläser) and heated at 55° C. overnight. Sections were treated with xylene to remove the paraffin wax and an ethanol series comprising 100%, 90%, 70%, 50% ethanol then water to rehydrate the sections. Sections were stained with toluidine blue to detect a cartilage proteoglycan matrix or safranin O/fast green for cartilage and bone following standard protocols. Osteogenic pellet sections were also stained with von Kossa to detect mineralization. Images were captured using a Leica DM 2000 LED microscope with Leica Application Suite (LAS) software version 4.9.0 or Zeiss Axio Imager Z2 with Zen 3.1 Blue Edition software.
(§2) Formalin fixed and paraffin-embedded sections were immunostained for collagen II (MAB8887; Sigma-Aldrich; 1:150 dilution), collagen I (LF68; Kerafast ENH018-FP; 1:100), collagen X (Cameron et al., 2015) (1:100), PRG4 (clone 9G3; Merck) (1:100) and Ku80 (Cell Signaling) (1:300). For collagen II staining, antigen retrieval used 2 mg/ml porcine pepsin (Sigma) freshly prepared in 1 M Tris/HCl, pH 2.0 for 30 minutes at 37° C., followed by digestion for 30 minutes at 37° C. with 0.2% hyaluronidase (Sigma-Aldrich) in PBS. Collagen X antigen retrieval involved heating to 60° C. in 10 mM Tris/1 mM EDTA/0.05% Tween-20, pH 9.0 (Tris/EDTA) for 30 min, cooling to room temperature for 30 minutes, followed by hyaluronidase digestion and collagen I and Ku80 staining followed antigen retrieval at 60° C. in Tris/EDTA as above. Sections to be stained with Ku80 were then permeabilized with 0.05% Triton X-100. Sections were blocked with 3% BSA in PBS for 1 hour at room temperature, then incubated with primary antibodies in 1% BSA in PBS for 16 hours at 4° C. Appropriate species specific Alexa Fluor 488 and 594 secondary antibodies (ThermoFisher) were diluted 1:200 in 1% BSA in PBS with 2.5 μg/ml DAPI, and sections incubated for 1 hour at room temperature. Slides were washed with PBS and coverslips mounted using Shandon Immumount (ThermoFisher). Images were captured as described above. For collagen X intracellular colocalization studies sections were treated with 0.2% hyaluronidase at 37° C. for 30 minutes then permeabilized with 0.05% Triton X-100. The collagen X antibody was used at 1:100, 58K (PA1-9000; ThermoFisher) at 1:50, GRP94 (PA5-18534; ThermoFisher) 1:200 and LAMP2 (ab25631; Abcam) 1:50. Images were captured on a Zeiss LSM900 Airyscan 2 confocal microscope with Zen 3.1 Blue Edition software.
RNA was extracted from monolayer cultures using TRIzol […] following the manufacturer's instructions. Typically 100-200 ng total RNA was used for cDNA synthesis in a total volume of 20 μl using the QuantiTect® Reverse Transcription kit (Qiagen) according to the manufacturer's instructions. […]

[3] = system: iPSC-derived chondroprogenitors (MCRIi019-A); test: TGFβ3 induction of an articular chondrocyte phenotype; settings: day 48
Method: In some experiments, differentiated chondrocytes were treated with 10 ng/ml TGFβ3 (R&D Systems) for up to 34 days to generate articular cartilage. From day 6, differentiation/maturation continued in APEL2/5% PFHM (with FGF2) for 7 days. From day 13, 10 ng/ml TGFβ3 was added (i.e. FGF2 and TGFβ3) with medium replaced every 2-3 days. At day 20, the pellets were transferred to rotary culture and cultured with 10 ng/ml TGFβ3 (R&D Systems) (and without FGF2) for a further 4 weeks.
as §1, §2
For RNAseq, organoids (2-3 pooled) were snap frozen in liquid nitrogen, pulverized using a liquid nitrogen-cooled tissue grinder and RNA extracted with TRIzol, followed by purification using Direct-zol RNA Microprep kit spin columns (Zymo Research) according to the manufacturer's instructions. RNA samples were quality controlled and sequenced at the Translational Genomics Unit, Murdoch Children's Research Institute. Libraries were constructed using Illumina Stranded mRNA Prep kits and sequenced using a NextSeq 500 to obtain ˜20×10^6 75 bp paired-end reads per sample or a NovaSeq 6000 for 150 bp paired-end reads. […]

[4] = osteogenic conditions with CHIR, RNAseq
[5] = osteogenic conditions with a CHIR pulse, RNAseq
[6] = 20 ng/ml for 14 days post-sclerotome, qRT-PCR
[7] = 20 ng/ml for 14 days post-sclerotome, static culture, day 34

Molecule: Cc1cnc(-c2cnc(NCCNc3ccc(C#N)cn3)nc2-c2ccc(Cl)cc2Cl)[nH]1 [CHIR99021, 6-[[2-[[4-(2,4-Dichlorophenyl)-5-(5-methyl-1H-imidazol-2-yl)-2-pyrimidinyl]amino]ethyl]amino]-3-pyridinecarbonitrile]
- COL1A1 mRNA expression v osteogenic medium alone ([1]; RNAseq): much higher
- bone markers COL3A1, COL5A1 and OMD mRNA v osteogenic medium alone ([1]; RNAseq): more highly expressed
- other cartilage markers (SOX9, COMP, IHH, MATN3, CEBPB, COL11A1, COL11A2, COL9A1, COL9A2, COL9A3) mRNA v osteogenic medium alone ([1]; RNAseq): downregulated more
- COL1A1 upregulation v hypertrophic chondrocytes [1, 4]: 324 fold
- COL1A2 upregulation v hypertrophic chondrocytes [1, 4]: 210 fold
- DMP1 upregulation v hypertrophic chondrocytes [1, 4]: 935 fold
- IBSP upregulation v hypertrophic chondrocytes [1, 4]: 7 fold
- IFITM5 upregulation v hypertrophic chondrocytes [1, 4]: 105 fold
- CCDC3 upregulation v hypertrophic chondrocytes [1, 5]: 121 fold
- FAP upregulation v hypertrophic chondrocytes [1, 5]: 64 fold
- POSTN upregulation v hypertrophic chondrocytes [1, 5]: 54 fold
- SFRP4 upregulation v hypertrophic chondrocytes [1, 5]: 4 fold
- TNC upregulation v hypertrophic chondrocytes [1, 5]: 72 fold
- toluidine blue staining ([1]; osteogenic medium with 7-day pulse then 2 weeks osteogenic medium alone): marked reduction in toluidine blue staining
- μCT calcium phosphate mineral ([1]; three weeks): little μCT attenuation
- von Kossa staining (matrix mineralization) ([1]; three weeks, compared between the two osteogenic conditions): positive von Kossa staining
- aggrecan degradation (toluidine blue) (MCRIi001-A-2 organoids): more extensive

Molecule: FGF2: FGF pathway activator growth factor (PeproTech) used at 20 ng/ml post-sclerotome
- COL2A1 and ACAN gene expression [2, 6]: consistently higher than in BMP4 cultures
- toluidine blue staining of pellets [2, 7]: strong toluidine blue staining throughout
- collagen II extracellular matrix (immunostaining) [2]: extensive and uniform collagen II extracellular matrix
- collagen X extracellular staining [2]: strong
- toluidine blue staining of pellets ([2]; rotary culture from day 6): stained throughout with toluidine blue

Molecule: TGFβ3: TGF-beta agonist growth factor (R&D Systems) used at 10 ng/ml
- PRG4 immunostaining ([3]; 10 ng/ml from day 13): High uniform PRG4 immunostaining
- chondrocyte morphology ([3]; 10 ng/ml from day 13): smaller chondrocytes
- collagen II expression (immunostaining) ([3]; 10 ng/ml from day 13): also expressing collagen II
- collagen X (immunostaining) ([3]; 10 ng/ml from day 13): no extracellular collagen X
- ACAN and HAPLN mRNA ([3]; RNAseq): down-regulation
- COL10A1, IBSP, SPP1 and MATN3 mRNA ([3]; RNAseq): among the most downregulated
- COMP mRNA v untreated chondronoids ([3]; RNAseq): not differentially expressed
- ERG transcription factor mRNA ([3]; RNAseq): highly expressed and upregulated
- MEOX1 and MEOX2 mRNA ([3]; RNAseq): highly upregulated
- PRG4, ASPN, CILP and CILP2 mRNA v untreated chondronoids ([3]; RNAseq): strongly upregulated
- downregulation of COL2A1, COL9A1, COL9A2, COL9A3, COL11A1 mRNA v untreated chondronoids ([3]; RNAseq): ≤ 2 fold
- elastic fiber components ELN, LTBP2, TGFBI and MFAP5 mRNA ([3]; RNAseq): among the 20 most highly upregulated genes
- hypertrophy transcription factors MEF2C, RUNX2, SP7 and DLX5 mRNA ([3]; RNAseq): Among the most strongly downregulated

B1: BMP4: growth factor (R & D Systems) included at 20 ng/ml in some experiments (protein, UniProt P12644 293-408, looked up)
Bone morphogenetic protein 4: SPKHHSQRARKKNKNCRRHSLYVDFSDVGWNDWIVAPPGYQAFYCHGDCPFPLADHLNSTNHAIVQTLVNSVNSSIPKACCVPTELSAISMLYLDEYDKVVLKNYQEMVVEGCGCR
- COL10A1 gene expression [2, 6]: expressed earlier
- toluidine blue staining of pellets [2, 7]: only isolated areas were toluidine blue positive
- expression of key cartilage genes ([2]; 20 ng/ml for two weeks post-sclerotome, first experiments, data not shown): key cartilage genes were not highly expressed
- collagen II extracellular matrix (immunostaining) [2]: only small foci that were positive for collagen II
- collagen X extracellular staining [2]: only seen in small, localized regions
- maintenance of pellets in rotary culture ([2]; transfer to rotary culture at end of day 6): fragile and could not be maintained in rotary culture
